Several values for one entry are separate records, joined by “and”; a condition that tells them apart may be missing. Equal entries are not always repeated. Inconclusive results and toxic doses are left out.
Test system: CD2F1 mice, L1210 leukemia ip, survival T/C
Experiment: NCI In Vivo Anticancer Drug Screen. Data for tumor model L1210 Leukemia (intraperitoneal) in CD2F1 (CDF1) mice
Conditions: higher = longer survival
How it was run: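 Each value reflects a quotient of treated over vehicle control outcomes in mice with a transplanted tumor.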

[1] = endpoint: mean survival time, dose: 1.0 mg/kg/injection, schedule: Q01DX009 (ip), vehicle: Klucel (hydroxypropylcellulose) (HPC)
[2] = endpoint: mean survival time, dose: 2.0 mg/kg/injection, schedule: Q01DX009 (ip), vehicle: Klucel (hydroxypropylcellulose) (HPC)
[3] = endpoint: mean survival time, dose: 4.0 mg/kg/injection, schedule: Q01DX009 (ip), vehicle: Klucel (hydroxypropylcellulose) (HPC)
[4] = endpoint: mean survival time, dose: 12.5 mg/kg/injection, schedule: Q01DX009 (ip), vehicle: saline with Tween-80
[5] = endpoint: mean survival time, dose: 25.0 mg/kg/injection, schedule: Q01DX009 (ip), vehicle: saline with Tween-80
[6] = endpoint: mean survival time, dose: 12.5 mg/kg/injection, schedule: Q01DX009 (ip), vehicle: saline
[7] = endpoint: mean survival time, dose: 25.0 mg/kg/injection, schedule: Q01DX009 (ip), vehicle: saline
[8] = endpoint: mean survival time, dose: 50.0 mg/kg/injection, schedule: Q04DX003 (ip), vehicle: saline
[9] = endpoint: mean survival time, dose: 100.0 mg/kg/injection, schedule: Q01DX009 (ip), vehicle: saline with Tween-80
[10] = endpoint: mean survival time, dose: 200.0 mg/kg/injection, schedule: Q01DX009 (ip), vehicle: saline with Tween-80
[11] = endpoint: mean survival time, dose: 50.0 mg/kg/injection, schedule: Q01DX009 (ip), vehicle: saline with Tween-80

Cc1nc(N)nc(N)c1-c1ccc(Cl)c(Cl)c1
T/C [1]: 106 % of control | T/C (endpoint: mean survival time, dose: 1.0 mg/kg/injection, schedule: Q01DX009 (ip), vehicle: saline with Tween-80): 107 % of control | T/C (endpoint: mean survival time, dose: 1.0 mg/kg/injection, schedule: Q02DX005 (ip), vehicle: saline): 115 % of control | T/C (endpoint: mean survival time, dose: 1.25 mg/kg/injection, schedule: Q01DX005 (ip), vehicle: distilled water + Tween-80): 95 % of control | T/C (endpoint: mean survival time, dose: 1.25 mg/kg/injection, schedule: Q01DX005 (ip), vehicle: water): 104 % of control | T/C (endpoint: mean survival time, dose: 1.3 mg/kg/injection, schedule: Q01DX009 (sc), vehicle: other): 123 % of control | T/C [2]: 107 % of control | T/C (endpoint: mean survival time, dose: 2.0 mg/kg/injection, schedule: Q01DX009 (ip), vehicle: saline with Tween-80): 119 % of control | T/C (endpoint: mean survival time, dose: 2.0 mg/kg/injection, schedule: Q02DX005 (ip), vehicle: saline): 115 % of control | T/C (endpoint: mean survival time, dose: 2.5 mg/kg/injection, schedule: Q01DX005 (ip), vehicle: distilled water + Tween-80): 93 % of control | T/C (endpoint: mean survival time, dose: 2.5 mg/kg/injection, schedule: Q01DX005 (ip), vehicle: water): 100 % of control | T/C [3]: 109 % of control | T/C (endpoint: mean survival time, dose: 4.0 mg/kg/injection, schedule: Q02DX005 (ip), vehicle: saline): 107 % of control | T/C (endpoint: mean survival time, dose: 4.0 mg/kg/injection, schedule: Q03DX002 (ip), vehicle: saline with Tween-80): 108 % of control | T/C (endpoint: mean survival time, dose: 5.0 mg/kg/injection, schedule: Q01DX005 (ip), vehicle: distilled water + Tween-80): 98 % of control | T/C (endpoint: mean survival time, dose: 5.0 mg/kg/injection, schedule: Q01DX005 (ip), vehicle: water): 100 % of control | T/C (endpoint: mean survival time, dose: 5.0 mg/kg/injection, schedule: Q02DX005 (ip), vehicle: saline): 87 % of control | T/C (endpoint: mean survival time, dose: 5.0 mg/kg/injection, schedule: Q## X005 (ip), vehicle: saline): 117 % of control | T/C (endpoint: mean survival time, dose: 6.0 mg/kg/injection, schedule: Q03DX002 (ip), vehicle: saline with Tween-80): 103 % of control | T/C (endpoint: mean survival time, dose: 8.0 mg/kg/injection, schedule: Q03DX002 (ip), vehicle: saline with Tween-80): 93 % of control | T/C (endpoint: mean survival time, dose: 10.0 mg/kg/injection, schedule: Q01DX005 (ip), vehicle: distilled water + Tween-80): 102 % of control | T/C (endpoint: mean survival time, dose: 10.0 mg/kg/injection, schedule: Q01DX005 (ip), vehicle: water): 98 % of control | T/C (endpoint: mean survival time, dose: 10.0 mg/kg/injection, schedule: Q03DX002 (ip), vehicle: saline with Tween-80): 110 % of control | T/C (endpoint: mean survival time, dose: 10.0 mg/kg/injection, schedule: Q## X005 (ip), vehicle: saline): 102 % of control | T/C (endpoint: mean survival time, dose: 12.0 mg/kg/injection, schedule: Q03DX002 (ip), vehicle: saline with Tween-80): 117 % of control | T/C (endpoint: mean survival time, dose: 16.0 mg/kg/injection, schedule: Q01DX009 (ip), vehicle: Klucel (hydroxypropylcellulose) (HPC)): 111 % of control | T/C (endpoint: mean survival time, dose: 20.0 mg/kg/injection, schedule: Q01DX005 (ip), vehicle: distilled water + Tween-80): 100 % of control | T/C (endpoint: mean survival time, dose: 20.0 mg/kg/injection, schedule: Q01DX005 (ip), vehicle: water): 98 % of control | T/C (endpoint: mean survival time, dose: 20.0 mg/kg/injection, schedule: Q04DX002 (ip), vehicle: saline): 97 % of control | T/C (endpoint: mean survival time, dose: 20.0 mg/kg/injection, schedule: Q## X005 (ip), vehicle: saline): 88 % of control | T/C (endpoint: mean survival time, dose: 30.0 mg/kg/injection, schedule: Q04DX002 (ip), vehicle: saline): 107 % of control | T/C (endpoint: mean survival time, dose: 40.0 mg/kg/injection, schedule: Q04DX002 (ip), vehicle: saline): 118 % of control and 103 % of control | T/C (endpoint: mean survival time, dose: 50.0 mg/kg/injection, schedule: Q04DX002 (ip), vehicle: saline): 100 % of control | T/C (endpoint: mean survival time, dose: 60.0 mg/kg/injection, schedule: Q04DX002 (ip), vehicle: saline): 108 % of control | T/C (endpoint: mean survival time, dose: 75.0 mg/kg/injection, schedule: Q04DX003 (ip), vehicle: saline): 118 % of control | T/C (endpoint: median survival time, dose: 0.62 mg/kg/injection, schedule: Q01DX009 (ip), vehicle: saline): 96 % of control | T/C (endpoint: median survival time, dose: 1.25 mg/kg/injection, schedule: Q01DX009 (ip), vehicle: saline): 97 % of control | T/C (endpoint: median survival time, dose: 5.0 mg/kg/injection, schedule: Q01DX009 (ip), vehicle: saline): 111 % of control | T/C (endpoint: median survival time, dose: 10.0 mg/kg/injection, schedule: Q01DX009 (ip), vehicle: saline): 113 % of control | T/C (endpoint: median survival time, dose: 20.0 mg/kg/injection, schedule: Q01DX009 (ip), vehicle: saline): 97 % of control

O=C1C=CC(=O)N1c1ccc(Cl)cc1[N+](=O)[O-]
T/C (endpoint: mean survival time, dose: 6.25 mg/kg/injection, schedule: Q04DX003 (ip), vehicle: saline with Tween-80): 98 % of control | T/C [4]: 97 % of control | T/C (endpoint: mean survival time, dose: 12.5 mg/kg/injection, schedule: Q04DX003 (ip), vehicle: saline with Tween-80): 101 % of control | T/C [5]: 96 % of control | T/C (endpoint: mean survival time, dose: 25.0 mg/kg/injection, schedule: Q04DX003 (ip), vehicle: saline with Tween-80): 98 % of control

COc1ccc(OC)c2c1CC(C(C)=O)CC2=O (configuration not stated)
T/C (endpoint: mean survival time, dose: 12.5 mg/kg/injection, schedule: Q01DX009 (ip), vehicle: water): 98 % of control | T/C (endpoint: mean survival time, dose: 25.0 mg/kg/injection, schedule: Q01DX009 (ip), vehicle: water): 102 % of control | T/C (endpoint: mean survival time, dose: 50.0 mg/kg/injection, schedule: Q01DX009 (ip), vehicle: water): 106 % of control | T/C (endpoint: mean survival time, dose: 100.0 mg/kg/injection, schedule: Q01DX009 (ip), vehicle: water): 100 % of control | T/C (endpoint: mean survival time, dose: 200.0 mg/kg/injection, schedule: Q01DX009 (ip), vehicle: water): 92 % of control

C[As](C)[Se]C1OC(CO)C(O)C(O)C1O (configuration not stated)
T/C [6]: 103 % of control | T/C (endpoint: mean survival time, dose: 12.5 mg/kg/injection, schedule: Q04DX003 (ip), vehicle: saline): 94 % of control | T/C [7]: 100 % of control | T/C (endpoint: mean survival time, dose: 25.0 mg/kg/injection, schedule: Q04DX003 (ip), vehicle: saline): 97 % of control | T/C (endpoint: mean survival time, dose: 50.0 mg/kg/injection, schedule: Q01DX009 (ip), vehicle: saline): 102 % of control | T/C [8]: 100 % of control

ClCCN(CCCl)c1ccc(N=Nc2ccc(Cl)cc2)cc1
T/C (endpoint: mean survival time, dose: 100.0 mg/kg/injection, schedule: Q01DX001 (ip), vehicle: Klucel (hydroxypropylcellulose) (HPC)): 94 % of control | T/C (endpoint: mean survival time, dose: 200.0 mg/kg/injection, schedule: Q01DX001 (ip), vehicle: Klucel (hydroxypropylcellulose) (HPC)): 94 % of control | T/C (endpoint: mean survival time, dose: 400.0 mg/kg/injection, schedule: Q01DX001 (ip), vehicle: Klucel (hydroxypropylcellulose) (HPC)): 97 % of control

Cc1ccccc1S(=O)(=O)/C(=C(/I)c1ccccc1)c1ccccc1
T/C [8]: 94 % of control | T/C (endpoint: mean survival time, dose: 100.0 mg/kg/injection, schedule: Q04DX003 (ip), vehicle: saline): 102 % of control | T/C (endpoint: mean survival time, dose: 200.0 mg/kg/injection, schedule: Q04DX003 (ip), vehicle: saline): 98 % of control

COC(/C=C\C(OC)OC)OC
T/C [6]: 101 % of control | T/C [7]: 96 % of control

CCCCc1ccc2nc(NC(=O)OC)[nH]c2c1
T/C (endpoint: mean survival time, dose: 6.25 mg/kg/injection, schedule: Q01DX009 (ip), vehicle: saline with Tween-80): 107 % of control | T/C [4]: 113 % of control | T/C [9]: 166 % of control | T/C [10]: 86 % of control

CCN(CC)CCCC(C)NC(c1ccc2c(c1)Sc1ccccc1O2)[P+](=O)O (configuration not stated)
T/C (endpoint: mean survival time, dose: 50.0 mg/kg/injection, schedule: Q04DX002 (ip), vehicle: saline with Tween-80): 97 % of control | T/C (endpoint: mean survival time, dose: 100.0 mg/kg/injection, schedule: Q01DX001 (ip), vehicle: saline sonified): 95 % of control | T/C (endpoint: mean survival time, dose: 100.0 mg/kg/injection, schedule: Q04DX002 (ip), vehicle: saline with Tween-80): 90 % of control | T/C (endpoint: mean survival time, dose: 200.0 mg/kg/injection, schedule: Q01DX001 (ip), vehicle: saline sonified): 91 % of control | T/C (endpoint: mean survival time, dose: 200.0 mg/kg/injection, schedule: Q04DX002 (ip), vehicle: saline with Tween-80): 97 % of control

O=C1C=CC(=O)c2ccccc21
T/C [1]: 94 % of control | T/C (endpoint: mean survival time, dose: 1.25 mg/kg/injection, schedule: Q04DX003 (ip), vehicle: saline with Tween-80): 104 % of control | T/C [2]: 102 % of control | T/C (endpoint: mean survival time, dose: 2.5 mg/kg/injection, schedule: Q04DX003 (ip), vehicle: saline with Tween-80): 95 % of control | T/C [3]: 102 % of control

Cc1ccc2cc3c(ccc4ccccc43)c3c2c1CC3
T/C [11]: 93 % of control | T/C [9]: 110 % of control | T/C [10]: 97 % of control | T/C (endpoint: mean survival time, dose: 400.0 mg/kg/injection, schedule: Q01DX009 (ip), vehicle: saline with Tween-80): 100 % of control

O=C(Nc1ccccc1C(=O)O)c1cc([N+](=O)[O-])cc([N+](=O)[O-])c1
T/C [4]: 95 % of control and 97 % of control | T/C [5]: 101 % of control and 103 % of control | T/C [11]: 100 % of control and 101 % of control | T/C [9]: 95 % of control and 97 % of control | T/C [10]: 96 % of control
